# Patent US12264159B2, “Functionalized heterocycles as antiviral agents” (Enanta Pharmaceuticals, Inc., priority 2018, dated 2025)
# Tests used:
# [1] = test system: HBV in 2.2.15 cells; experiment: 2.2.15 cells: viral product in cell lysates quantified via quantitative real time PCR; assay type: cell-based, hepatitis B virus (HBV); conditions: Hepatitis B virus, 120 h, day 5 post treatment, 50% reduction of viral product vs no drug controls, readout (qPCR, HBsAg or HBeAg) not specified for the column
# Description: 2.2.15 cells are passaged upon attaining confluency in DMEM/F12 media in the presence of 10% FBS, Penn/Strep, and 250 ug/mL G418. Novel compounds are 5 fold serially diluted in DMSO and added to 96 well plates containing 35,000 cells/well at a 1:200 dilution so that the final concentration of DMSO is 0.5%. On day 5, post treatment cell lysates and supernatants are harvested for analysis.
# Cells are lysed using Agilent Sidestep Lysis buffer, diluted 1:100 and quantified via quantitative real time PCR. Commercially available ELISA kits are used to quantitate the viral proteins HBsAg (Alpco) or HBeAg (US Biological) by following the manufacturer's recommended protocol after diluting samples to match the linear range of their respective assays. Irrespective of readout, compound concentrations that reduce viral product accumulation in the cell lysates or supernatants by 50% relative to no drug controls (EC50) are reported; EC50 ranges are as follows: A<0.1 μM; B 0.2-1 μM; C>1 μM.
# [2] = Compound induced cellular toxicity in HepG2 cells, ATPlite 1Step; assay type: cell-based; conditions: human, three days exposure, 50% reduction of total ATP vs no drug controls
# Description: At day 3, post seeding cells are treated with ATPlite 1Step according to the manufacturer's instructions.
Structure (SMILES),EC50 [1],CC50 at 3 days [2]
"C[C@@H]1Cn2nc(-c3ccc(F)cc3)c(-c3ccc(F)cc3)c2-c2cc(=O)c(C(=O)O)cn21 [Example 204, (R)-1,2-bis(4-fluorophenyl)-6-methyl-10-oxo-5,6-dihydro-10H-pyrazolo[1,5-a]pyrido[2,1-c]pyrazine-9-carboxylic acid]",< 100 nM,> 25000 nM
"CC(C)(C)[C@@H]1Cn2nc(C3CC3)c(-c3ccco3)c2-c2cc(=O)c(C(=O)O)cn21 [Example 159, (R)-6-(tert-butyl)-2-cyclopropyl-1-(furan-2-yl)-10-oxo-5,6-dihydro-10H-pyrazolo[1,5-a]pyrido[2,1-c]pyrazine-9-carboxylic acid]",< 100 nM,> 25000 nM
"CCOc1cccc(F)c1-c1cc2n(n1)C[C@@H](C(C)(C)C)n1cc(C(=O)O)c(=O)cc1-2 [Example 74, (R)-6-(tert-butyl)-2-(2-ethoxy-6-fluorophenyl)-10-oxo-5,6-dihydro-10H-pyrazolo[1,5-a]pyrido[2,2-c]pyrazine-12-carboxylic acid]",< 100 nM,> 25000 nM
"CC(C)(C)[C@@H]1Cn2nc(-c3cccc4nonc34)cc2-c2cc(=O)c(C(=O)O)cn21 [Example 58, (R)-2-(benzo[c][1,2,5]oxadiazol-4-yl)-6-(tert-butyl)-10-oxo-5,6-dihydro-10H-pyrazolo[1,5-a]pyrido[2,2-c]pyrazine-12-carboxylic acid]",< 100 nM,> 25000 nM
"CCCCOc1ccccc1-c1cc2n(n1)C[C@@H](C(C)(C)C)n1cc(C(=O)O)c(=O)cc1-2 [Example 78, (R)-2-(2-butoxyphenyl)-6-(tert-butyl)-10-oxo-5,6-dihydro-10H-pyrazolo[1,5-a]pyrido[2,2-c]pyrazine-12-carboxylic acid]",< 100 nM,> 25000 nM
"CC(C)[C@@H]1Cn2nc(C3CC3)c(-c3ccc(F)cc3)c2-c2cc(=O)c(C(=O)O)cn21 [Example 133, (R)-2-cyclopropyl-1-(4-fluorophenyl)-6-isopropyl-10-oxo-5,6-dihydro-10H-pyrazolo[1,5-a]pyrido[2,1-c]pyrazine-9-carboxylic acid]",< 100 nM,> 25000 nM
"CC(C)(C)[C@@H]1Cn2nc(C3CC3)c(-c3ccccc3)c2-c2cc(=O)c(-c3ncn[nH]3)cn21 [Example 195, (R)-6-(tert-butyl)-2-cyclopropyl-1-phenyl-9-(1H-1,2,4-triazol-5-yl)-5,6-dihydro-10H-pyrazolo[1,5-a]pyrido[2,1-c]pyrazin-10-one]",< 100 nM,> 25000 nM
"CC(C)(C)[C@@H]1Cn2nc(-c3ccc(OC(F)(F)F)cc3)cc2-c2cc(=O)c(C(=O)O)cn21 [Example 25, (R)-6-(tert-butyl)-10-oxo-2-(4-(trifluoromethoxy)phenyl)-5,6-dihydro-10H-pyrazolo[1,5-a]pyrido[2,2-c]pyrazine-12-carboxylic acid]",200 to 1000 nM,> 25000 nM
"CC(C)(C)[C@@H]1Cn2nc(C3CC3)c(-c3ccccc3O)c2-c2cc(=O)c(C(=O)O)cn21 [Example 165, (R)-6-(tert-butyl)-2-cyclopropyl-1-(2-hydroxyphenyl)-10-oxo-5,6-dihydro-10H-pyrazolo[1,5-a]pyrido[2,1-c]pyrazine-9-carboxylic acid]",< 100 nM,> 25000 nM
"CC(C)(C)[C@@H]1Cn2ncc(-c3ccccc3OC(F)(F)F)c2-c2cc(=O)c(C(=O)O)cn21 [Example 115, (R)-6-(tert-butyl)-10-oxo-1-(2-(trifluoromethoxy)phenyl)-5,6-dihydro-10H-pyrazolo[1,5-a]pyrido[2,1-c]pyrazine-9-carboxylic acid]",< 100 nM,> 25000 nM
"CC(C)(C)[C@@H]1Cn2nc(C3CC3)c(-c3cccs3)c2-c2cc(=O)c(C(=O)O)cn21 [Example 156, (R)-6-(tert-butyl)-2-cyclopropyl-10-oxo-1-(thiophen-2-yl)-5,6-dihydro-10H-pyrazolo[1,5-a]pyrido[2,1-c]pyrazine-9-carboxylic acid]",< 100 nM,> 25000 nM
"COc1ccc(-c2cnn3c2-c2cc(=O)c(C(=O)O)cn2[C@H](C(C)(C)C)C3)cc1 [Example 114, (R)-6-(tert-butyl)-1-(4-methoxyphenyl)-10-oxo-5,6-dihydro-10H-pyrazolo[1,5-a]pyrido[2,1-c]pyrazine-9-carboxylic acid]",< 100 nM,> 25000 nM
"CC(C)(C)[C@@H]1Cn2ncc(-c3cccc(F)c3)c2-c2cc(=O)c(C(=O)O)cn21 [Example 103, (R)-6-(tert-butyl)-1-(3-fluorophenyl)-10-oxo-5,6-dihydro-10H-pyrazolo[1,5-a]pyrido[2,1-c]pyrazine-9-carboxylic acid]",< 100 nM,> 25000 nM
"CC(C)(C)[C@@H]1Cn2nc(-c3cccc4scnc34)cc2-c2cc(=O)c(C(=O)O)cn21 [Example 31, (R)-2-(benzo[d]thiazol-4-yl)-6-(tert-butyl)-10-oxo-5,6-dihydro-10H-pyrazolo[1,5-a]pyrido[2,2-c]pyrazine-12-carboxylic acid]",< 100 nM,> 25000 nM
"CC(C)[C@@H]1Cn2nc(-c3cccc(Cl)c3)c(-c3cccc(Cl)c3)c2-c2c(F)c(=O)c(C(=O)O)cn21 [Example 185, (R)-1,2-bis(3-chlorophenyl)-11-fluoro-6-isopropyl-10-oxo-5,6-dihydro-10H-pyrazolo[1,5-a]pyrido[2,1-c]pyrazine-9-carboxylic acid]",200 to 1000 nM,–
"CC(C)[C@@H]1Cn2nc(-c3cccc(O)c3)c(-c3cccc(O)c3)c2-c2c(F)c(=O)c(C(=O)O)cn21 [Example 190, (R)-11-fluoro-1,2-bis(3-hydroxyphenyl)-6-isopropyl-10-oxo-5,6-dihydro-10H-pyrazolo[1,5-a]pyrido[2,1-c]pyrazine-9-carboxylic acid]",200 to 1000 nM,–
"CC(C)[C@@H]1Cn2nc(-c3ccncc3)c(-c3ccncc3)c2-c2c(F)c(=O)c(C(=O)O)cn21 [Example 184, (R)-11-fluoro-6-isopropyl-10-oxo-1,2-di(pyridin-4-yl)-5,6-dihydro-10H-pyrazolo[1,5-a]pyrido[2,1-c]pyrazine-9-carboxylic acid]",200 to 1000 nM,–
"CC(C)(C)[C@@H]1Cn2ncc(-c3cccnc3)c2-c2cc(=O)c(C(=O)O)cn21 [Example 118, (R)-6-(tert-butyl)-10-oxo-1-(pyridin-3-yl)-5,6-dihydro-10H-pyrazolo[1,5-a]pyrido[2,1-c]pyrazine-9-carboxylic acid]",< 100 nM,–
"CC(C)[C@@H]1Cn2nc(C3CC3)c(-c3ccnnc3)c2-c2cc(=O)c(C(=O)O)cn21 [Example 145, (R)-2-cyclopropyl-6-isopropyl-10-oxo-1-(pyridazin-4-yl)-5,6-dihydro-10H-pyrazolo[1,5-a]pyrido[2,1-c]pyrazine-9-carboxylic acid]",200 to 1000 nM,–
"CC(C)[C@@H]1Cn2nc(-c3ccnnc3)c(-c3ccnnc3)c2-c2cc(=O)c(C(=O)O)cn21 [Example 173, (R)-6-isopropyl-10-oxo-1,2-di(pyridazin-4-yl)-5,6-dihydro-10H-pyrazolo[1,5-a]pyrido[2,1-c]pyrazine-9-carboxylic acid]",200 to 1000 nM,–
"CC(C)[C@@H]1Cn2nc(-c3ccc(OC4CC4)cc3)c(-c3ccc(OC4CC4)cc3)c2-c2cc(=O)c(C(=O)O)cn21 [Example 176, (R)-1,2-bis(4-cyclopropoxyphenyl)-6-isopropyl-10-oxo-5,6-dihydro-10H-pyrazolo[1,5-a]pyrido[2,1-c]pyrazine-9-carboxylic acid]",200 to 1000 nM,–
"CC(C)[C@@H]1Cn2nc(-c3ccncc3)c(-c3ccncc3)c2-c2cc(=O)c(C(=O)O)cn21 [Example 175, (R)-6-isopropyl-10-oxo-1,2-di(pyridin-4-yl)-5,6-dihydro-10H-pyrazolo[1,5-a]pyrido[2,1-c]pyrazine-9-carboxylic acid]",200 to 1000 nM,–
"CC(C)(C)[C@@H]1Cn2cc(-c3ccc(F)cc3)nc2-c2cc(=O)c(C(=O)O)cn21 [Example 90, (R)-6-(tert-butyl)-2-(4-fluorophenyl)-10-oxo-5,6-dihydro-10H-imidazo[1,2-a]pyrido[2,1-c]pyrazine-9-carboxylic acid]",200 to 1000 nM,–
"CC(C)[C@@H]1Cn2nc(C3CC3)c(-c3ccncc3)c2-c2cc(=O)c(C(=O)O)cn21 [Example 144, (R)-2-cyclopropyl-6-isopropyl-10-oxo-1-(pyridin-4-yl)-5,6-dihydro-10H-pyrazolo[1,5-a]pyrido[2,1-c]pyrazine-9-carboxylic acid]",< 100 nM,–
"CC(C)(C)[C@@H]1Cn2ncc(-c3ccncc3)c2-c2cc(=O)c(C(=O)O)cn21 [Example 119, (R)-6-(tert-butyl)-10-oxo-1-(pyridin-4-yl)-5,6-dihydro-10H-pyrazolo[1,5-a]pyrido[2,1-c]pyrazine-9-carboxylic acid]",< 100 nM,–
"CC(C)[C@@H]1Cn2nc(C3CC3)c(-c3cnco3)c2-c2cc(=O)c(C(=O)O)cn21 [Example 139, (R)-2-cyclopropyl-6-isopropyl-1-(oxazol-5-yl)-10-oxo-5,6-dihydro-10H-pyrazolo[1,5-a]pyrido[2,1-c]pyrazine-9-carboxylic acid]",200 to 1000 nM,–
"CCOc1ccccc1-c1nn2c(c1F)-c1cc(=O)c(C(=O)O)cn1[C@H](C(C)(C)C)C2 [Example 92, (R)-6-(tert-butyl)-2-(2-ethoxyphenyl)-1-fluoro-10-oxo-5,6-dihydro-10H-pyrazolo[1,5-a]pyrido[2,1-c]pyrazine-9-carboxylic acid]",< 100 nM,–
